Source: paper PMC7551609 (Viruses, 2020)
Entries after “also recorded” stand apart in the source; their conditions may differ. Where a name gives a salt, the structure may show the parent alone. Read-outs that look alike come from different tables or passages of the source.

Key:
ZIKV Paraiba/2015 [1] = test: Viral inhibition assay, pre-treatment (prophylactic), Vero cells; assay type: cell-based, Zika virus; settings: for EC50: ZIKV Paraiba/2015, Vero cells, pre-treatment 12 h before infection; for inhibitor category based on SI-MTT / inhibitor category based on SI-XTT: pre-treatment, Paraiba/2015, Vero
ZIKV Paraiba/2015 [2] = test: Viral inhibition assay, post-infection treatment, Vero cells; assay type: cell-based, Zika virus; settings: for EC50: ZIKV Paraiba/2015, Vero cells, post-infection treatment, 36 h; for inhibitor category based on SI-MTT and SI-XTT: post-treatment, Paraiba/2015, Vero
ZIKV Paraiba/2015 [3] = test: Viral inhibition assay, post-treatment, human A549 cells; assay type: cell-based, Zika virus; settings: for inhibitor category based on SI-MTT and SI-XTT: Paraiba/2015, A549 cells; for EC50: ZIKV Paraiba/2015, A549 cells, post-treatment, 36 h
ZIKV Paraiba/2015 [4] = test: Viral inhibition assay, co-treatment, Vero cells; assay type: cell-based, Zika virus; settings: for Co-treatment MIC (maximum effective concentration): Vero cells, ZIKV Paraiba/2015, co-treatment
Vero cells [5] = test: XTT cell proliferation assay in Vero cells; assay type: cell-based, African green monkey; settings: non-infected Vero cells, 36 h post-treatment
A549 cells [6] = test: MTT cell viability in A549 cells; assay type: cell-based, human; settings: highest concentration used 50.00 µM, sentence also cites [17]
Vero cells [7] = test: MTT cell viability assay in Vero cells; assay type: cell-based, African green monkey; settings: non-infected Vero cells, 36 h post-treatment
ZIKV PRVABC59 strain = test: Viral inhibition assay, post-treatment, new World strain, Vero cells; assay type: cell-based, Zika virus; settings: for inhibitor category based on SI-MTT and SI-XTT: ZIKV PRVABC59, Vero; for EC50: new World ZIKV PRVABC59, Vero cells, post-treatment, 48 h
ZIKV Paraiba/2015 [8] = test: Growth kinetics inhibition assay (infectious viral progeny), Vero cells; assay type: cell-based, Zika virus
A549 cells [9] = test: XTT cell proliferation in A549 cells; assay type: cell-based, human; settings: highest concentration used 50.00 µM, sentence also cites [17]
ZIKV MR-766 strain = test: Viral inhibition assay, post-treatment, old World strain, Vero cells; assay type: cell-based, Zika virus; settings: for inhibitor category based on SI-MTT and SI-XTT: ZIKV MR-766, Vero; for EC50: old World ZIKV MR-766, Vero cells, post-treatment; for MIC: old World ZIKV MR-766 strain, read-out: MR766 MIC (maximum effective concentration)
[10] = XTT cell proliferation assay in Vero cells; assay type: cell-based, African green monkey; settings: African green monkey, confluent monolayers; non-infected Vero cells, 36 h post-treatment
ZIKV MR-766 [11] = settings: ZIKV MR-766, Vero cells; cited from earlier work
[12] = MTT cell viability in A549 cells; assay type: cell-based, human; settings: human, highest concentration used 50.00 µM, sentence also cites [17]
ZIKV MR-766 [13] = settings: ZIKV MR-766, Vero cells, pre-treatment conditions; cited from earlier work
[14] = MTT cell viability assay in Vero cells; assay type: cell-based, African green monkey; settings: African green monkey, confluent monolayers; non-infected Vero cells, 36 h post-treatment
[15] = XTT cell proliferation in A549 cells; assay type: cell-based, human; settings: human, highest concentration used 50.00 µM, sentence also cites [17]
[16] = co-treatment, Paraiba/2015, Vero

## 2′,3′,5′-Triacetyl-6-azauridine [Azaribine]
ZIKV Paraiba/2015 [1]; Vero cells, ZIKV Paraiba/2015, pre-treatment
  Pre-treatment MIC (maximum effective concentration): > 100.00 µM
ZIKV Paraiba/2015 [1]
  EC50: 47.3 µM
  inhibitor category based on SI-MTT: moderate
  inhibitor category based on SI-XTT: weakest and weak
ZIKV Paraiba/2015 [2]; Vero cells, ZIKV Paraiba/2015, post-treatment
  Post-treatment MIC (maximum effective concentration): > 100.00 µM
ZIKV Paraiba/2015 [2]; read-out: EC50
  EC50: 1.62 µM
ZIKV Paraiba/2015 [2]
  inhibitor category based on SI-MTT and SI-XTT: most potent; also recorded: potent
ZIKV Paraiba/2015 [3]; A549 cells
  A549 cells MIC (maximum effective concentration): < 11.10 µM
ZIKV Paraiba/2015 [3]
  inhibitor category based on SI-MTT and SI-XTT: weak
  EC50: 0.68 µM
ZIKV Paraiba/2015 [4]
  Co-treatment MIC (maximum effective concentration): > 100.00 µM
ZIKV Paraiba/2015 [4]; ZIKV Paraiba/2015, Vero cells, co-treatment (virus pre-incubated with compound 1 h), read-out: EC50
  EC50: 2.59 µM
ZIKV Paraiba/2015 [4]; [16]
  inhibitor category based on SI-MTT: Potent
  inhibitor category based on SI-MTT and SI-XTT: potent
  inhibitor category based on SI-XTT: potent
Vero cells [5]
  CC50: > 1350 µM
A549 cells [6]
  CC50: > 50 µM
Vero cells [7]
  CC50: 237 µM
ZIKV PRVABC59 strain
  inhibitor category based on SI-MTT and SI-XTT: moderate
  EC50: 1.12 µM
ZIKV PRVABC59 strain; new World ZIKV PRVABC59
  PRVABC59 MIC (maximum effective concentration): < 11.10 µM
ZIKV Paraiba/2015 [8]; 24 h post-treatment and at 10 EC50 at 48 and 72 h post-treatment
  effect on production of infectious viral progeny (viral titers): significant effect
A549 cells [9]
  CC50: > 50 µM
ZIKV MR-766 strain
  inhibitor category based on SI-MTT and SI-XTT: weak
  EC50: 2.43 µM
  MIC: < 11.10 µM

## Cc1c(-c2ccc(-c3ccccc3F)cc2)nc2ccc(F)cc2c1C(=O)O [Brequinar, Brequinar sodium salt hydrate]
ZIKV Paraiba/2015 [1]; Zika virus, read-out: Pre-treatment MIC (maximum effective concentration)
  MIC: > 100 µM
ZIKV Paraiba/2015 [1]; Zika virus
  EC50: 42.5 µM
ZIKV Paraiba/2015 [1]
  inhibitor category based on SI-MTT: moderate
  inhibitor category based on SI-XTT: weakest and weak
ZIKV Paraiba/2015 [2]
  EC50: 1.51 µM
  inhibitor category based on SI-MTT and SI-XTT: most potent; also recorded: potent
ZIKV Paraiba/2015 [2]; Zika virus, Vero
  EC50: 1.03 µM
ZIKV Paraiba/2015 [2]; Zika virus, read-out: Post-treatment MIC (maximum effective concentration)
  MIC: > 100 µM
ZIKV Paraiba/2015 [3]
  inhibitor category based on SI-MTT and SI-XTT: Potent
ZIKV Paraiba/2015 [3]; Zika virus, in Homo sapiens, read-out: A549 cells MIC (maximum effective concentration)
  MIC: < 0.04 µM
ZIKV Paraiba/2015 [3]; Zika virus
  EC50: 0.02 µM
ZIKV Paraiba/2015 [4]
  Co-treatment MIC (maximum effective concentration): < 33.30 µM
ZIKV Paraiba/2015 [4]; [16]
  inhibitor category based on SI-MTT and SI-XTT: moderate
[10]
  CC50 at 36 h: > 1350 µM
ZIKV MR-766 [11]
  EC50: 0.08 µM
[12]
  CC50: > 50 µM
ZIKV MR-766 [13]
  EC50: 0.3 µM
[14]
  CC50 at 36 h: 238 µM
ZIKV PRVABC59 strain
  inhibitor category based on SI-MTT and SI-XTT: potent
ZIKV PRVABC59 strain; Zika virus
  EC50: 0.08 µM
ZIKV PRVABC59 strain; Zika virus, new World ZIKV PRVABC59, read-out: PRVABC59 MIC (maximum effective concentration)
  MIC: < 0.41 µM
ZIKV Paraiba/2015 [8]; 0.1, 1, 10 EC50, all time points (24, 48, 72 h post-treatment), MOI 0.1
  effect on production of infectious viral progeny (viral titers): dose-dependent inhibitory effect
ZIKV Paraiba/2015 [8]; 10 EC50, 24 and 48 h post-treatment
  effect on production of infectious viral progeny (viral titers): Complete inhibition
[15]
  CC50: > 50 µM
ZIKV MR-766 strain
  inhibitor category based on SI-MTT and SI-XTT: most potent; also recorded: potent
ZIKV MR-766 strain; Zika virus
  EC50: 0.05 µM
  MIC: < 0.13 µM
